According to patent publication US20260262643A1, “HERBICIDAL BENZOXAZINES” (FMC CORPORATION, priority 2022, published 2026):

How the values were obtained:
galium = experiment: Test C postemergence; assay type: in vivo, Galium aparine; settings: 10 days, 0 to 100 scale (0 no effect, 100 complete control)
Summary of the method: (§1)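 Greenhouse herbicide screen, 10-day duration. Test chemicals in solvent/surfactant blend were sprayed onto soil at sowing (pre) or onto 2–10 cm seedlings at one to two leaves (post); injury scored visually against controls, 0 no effect to 100 complete control.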

ragweed [1] = experiment: Test C postemergence; assay type: in vivo, Ambrosia artemisiifolia; settings: 10 days, 0 to 100 scale (0 no effect, 100 complete control)
Summary of the method: as §1

horseweed = experiment: Test C postemergence; assay type: in vivo, Erigeron canadensis; settings: 10 days, 0 to 100 scale (0 no effect, 100 complete control)
Summary of the method: as §1

corn [2] = experiment: Test C postemergence; assay type: in vivo, Zea mays; settings: 10 days, 0 to 100 scale (0 no effect, 100 complete control)
Summary of the method: as §1

wheat [3] = experiment: Test C postemergence; assay type: in vivo, Triticum aestivum; settings: 10 days, 0 to 100 scale (0 no effect, 100 complete control)
Summary of the method: as §1

sedge, umbrella = experiment: Test D flooded paddy test; assay type: in vivo, Cyperus difformis; settings: 250 g ai/ha, applied to paddy water, visual rating after 13 to 14 days, scale 0 to 100 (0 no effect, 100 complete control)
Summary of the method: (§2)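 Plants at the 2-leaf stage were grown in pots flooded to 3 cm, and compound was applied directly into the paddy water, with depth kept throughout. After 13–14 days in a greenhouse, injury was rated visually against untreated controls on a 0–100 scale (100 = complete control); a dash means not tested.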

rice = experiment: Test D flooded paddy test; assay type: in vivo, Oryza sativa; settings: 250 g ai/ha, applied to paddy water, visual rating after 13 to 14 days, scale 0 to 100 (0 no effect, 100 complete control)
Summary of the method: as §2

ryegrass, Italian [4] = experiment: Test C postemergence; assay type: in vivo, Lolium multiflorum; settings: 10 days, 0 to 100 scale (0 no effect, 100 complete control)
Summary of the method: as §1

pigweed, palmer [5] = experiment: Test C postemergence; assay type: in vivo, Amaranthus palmeri; settings: 10 days, 0 to 100 scale (0 no effect, 100 complete control)
Summary of the method: as §1

kochia [6] = experiment: Test C postemergence; assay type: in vivo, Bassia scoparia; settings: 10 days, 0 to 100 scale (0 no effect, 100 complete control)
Summary of the method: as §1

corn [7] = experiment: Test C preemergence; assay type: in vivo, Zea mays
Summary of the method: as §1

barnyardgrass [8] = experiment: Test D flooded paddy test; assay type: in vivo, Echinochloa crus-galli; settings: 250 g ai/ha, applied to paddy water, visual rating after 13 to 14 days, scale 0 to 100 (0 no effect, 100 complete control)
Summary of the method: as §2

kochia [9] = experiment: Test C preemergence; assay type: in vivo, Bassia scoparia
Summary of the method: as §1

pigweed, palmer [10] = experiment: Test C preemergence; assay type: in vivo, Amaranthus palmeri
Summary of the method: as §1

green foxtail [11] = experiment: Test C preemergence; assay type: in vivo, Setaria viridis
Summary of the method: as §1

ragweed [12] = experiment: Test C preemergence; assay type: in vivo, Ambrosia artemisiifolia
Summary of the method: as §1

wheat [13] = experiment: Test C preemergence; assay type: in vivo, Triticum aestivum
Summary of the method: as §1

soybean [14] = experiment: Test C preemergence; assay type: in vivo, Glycine max
Summary of the method: as §1

green foxtail [15] = experiment: Test C postemergence; assay type: in vivo, Setaria viridis; settings: 10 days, 0 to 100 scale (0 no effect, 100 complete control)
Summary of the method: as §1

ryegrass, Italian [16] = experiment: Test C preemergence; assay type: in vivo, Lolium multiflorum
Summary of the method: as §1

oat, wild [17] = experiment: Test C preemergence; assay type: in vivo, Avena fatua
Summary of the method: as §1

ducksalad = experiment: Test D flooded paddy test; assay type: in vivo, Heteranthera limosa; settings: 250 g ai/ha, applied to paddy water, visual rating after 13 to 14 days, scale 0 to 100 (0 no effect, 100 complete control)
Summary of the method: as §2

oat, wild [18] = experiment: Test C postemergence; assay type: in vivo, Avena fatua; settings: 10 days, 0 to 100 scale (0 no effect, 100 complete control)
Summary of the method: as §1

barnyardgrass [19] = experiment: Test C postemergence; assay type: in vivo, Echinochloa crusgalli; settings: 10 days, 0 to 100 scale (0 no effect, 100 complete control)
Summary of the method: as §1

blackgrass [20] = experiment: Test C postemergence; assay type: in vivo, Alopecurus myosuroides; settings: 10 days, 0 to 100 scale (0 no effect, 100 complete control)
Summary of the method: as §1

soybean [21] = experiment: Test C postemergence; assay type: in vivo, Glycine max; settings: 10 days, 0 to 100 scale (0 no effect, 100 complete control)
Summary of the method: as §1

blackgrass [22] = experiment: Test C preemergence; assay type: in vivo, Alopecurus myosuroides
Summary of the method: as §1

barnyardgrass [23] = experiment: Test C preemergence; assay type: in vivo, Echinochloa crusgalli
Summary of the method: as §1

[24] = 500 g ai/ha, preemergence, 0 to 100 scale (0 no effect, 100 complete control)
[25] = Preemergence, 125 g ai/ha, 0 to 100 scale, 0 no effect, 100 complete control

In the case of `CCOCC1CN(C(=O)c2cc(-n3cnc(C4CCC4)n3)ccc2OC)c2cccc(Cl)c2O1` (stereo not shown) [Compound 377], the “Plant response rating, Galium” value (galium; 500 g ai/ha, postemergence) is reported as 100, the “Plant response rating, Galium” value (galium; Postemergence, 125 g ai/ha) is reported as 100 and the “Plant response rating, Ragweed” value (ragweed [1]; 500 g ai/ha, postemergence) is reported as 90. The “Plant response rating, Ragweed” value (ragweed [1]; Postemergence, 125 g ai/ha) was 80, the “Plant response rating, Horseweed” value (horseweed; 500 g ai/ha, postemergence) was 30 and the “Plant response rating, Horseweed” value (horseweed; Postemergence, 125 g ai/ha) was 50. For the same molecule, the “Plant response rating, Corn” value (corn [2]; 500 g ai/ha, postemergence) was 30, the “Plant response rating, Corn” value (corn [2]; Postemergence, 125 g ai/ha) was 20 and the “Plant response rating, Wheat” value (wheat [3]; 500 g ai/ha, postemergence) was 30. The “Plant response rating, Wheat” value (wheat [3]; Postemergence, 125 g ai/ha) was 20, the “Plant response rating, Sedge, Umbrella (Flood)” value (sedge, umbrella) was 55 and the “Plant response rating, Rice (Flood)” value (rice) was 0. For the same molecule, the “Plant response rating, Ryegrass, Italian” value (ryegrass, Italian [4]; 500 g ai/ha, postemergence) was 50, the “Plant response rating, Ryegrass, Italian” value (ryegrass, Italian [4]; Postemergence, 125 g ai/ha) was 40 and the “Plant response rating, Pigweed, Palmer” value (pigweed, palmer [5]; 500 g ai/ha, postemergence) was 100. The “Plant response rating, Pigweed, Palmer” value (pigweed, palmer [5]; Postemergence, 125 g ai/ha) was 90, the “Plant response rating, Kochia” value (kochia [6]; 500 g ai/ha, postemergence) was 90 and the “Plant response rating, Kochia” value (kochia [6]; Postemergence, 125 g ai/ha) was 90. The “Corn plant response rating” value (corn [7]; [24]) was 20, the “Plant response rating, Corn” value (corn [7]; [25]) was 0 and the “Plant response rating, Barnyardgrass (Flood)” value (barnyardgrass [8]) was 0. The “Kochia plant response rating” value (kochia [9]; [24]) was 100, the “Plant response rating, Kochia” value (kochia [9]; [25]) was 70 and the “Pigweed, Palmer plant response rating” value (pigweed, palmer [10]; [24]) was 100. The “Plant response rating, Pigweed, Palmer” value (pigweed, palmer [10]; [25]) was 100, the “Foxtail, Green plant response rating” value (green foxtail [11]; [24]) was 100 and the “Plant response rating, Foxtail, Green” value (green foxtail [11]; [25]) was 50. For the same molecule, the “Ragweed plant response rating” value (ragweed [12]; [24]) was 70, the “Plant response rating, Ragweed” value (ragweed [12]; [25]) was 30 and the “Wheat plant response rating” value (wheat [13]; [24]) was 20. For the same molecule, the “Plant response rating, Wheat” value (wheat [13]; [25]) was 0, the “Soybean plant response rating” value (soybean [14]; [24]) was 90 and the “Plant response rating, Soybean” value (soybean [14]; [25]) was 60. The “Plant response rating, Foxtail, Green” value (green foxtail [15]; 500 g ai/ha, postemergence) was 40, the “Plant response rating, Foxtail, Green” value (green foxtail [15]; Postemergence, 125 g ai/ha) was 20 and the “Ryegrass, Italian plant response rating” value (ryegrass, Italian [16]; [24]) was 70. The “Plant response rating, Ryegrass, Italian” value (ryegrass, Italian [16]; [25]) was 60, the “Oat, Wild plant response rating” value (oat, wild [17]; [24]) was 20 and the “Plant response rating, Oat, Wild” value (oat, wild [17]; [25]) was 20. The “Plant response rating, Ducksalad (Flood)” value (ducksalad) was 15, the “Plant response rating, Oat, Wild” value (oat, wild [18]; 500 g ai/ha, postemergence) was 0 and the “Plant response rating, Oat, Wild” value (oat, wild [18]; Postemergence, 125 g ai/ha) was 0. For the same molecule, the “Plant response rating, Barnyardgrass” value (barnyardgrass [19]; 500 g ai/ha, postemergence) was 50, the “Plant response rating, Barnyardgrass” value (barnyardgrass [19]; Postemergence, 125 g ai/ha) was 30 and the “Plant response rating, Blackgrass” value (blackgrass [20]; 500 g ai/ha, postemergence) was 20. The “Plant response rating, Blackgrass” value (blackgrass [20]; Postemergence, 125 g ai/ha) was 0, the “Plant response rating, Soybean” value (soybean [21]; 500 g ai/ha, postemergence) was 100 and the “Plant response rating, Soybean” value (soybean [21]; Postemergence, 125 g ai/ha) was 100. For the same molecule, the “Blackgrass plant response rating” value (blackgrass [22]; [24]) was 20, the “Plant response rating, Blackgrass” value (blackgrass [22]; [25]) was 0 and the “Barnyardgrass plant response rating” value (barnyardgrass [23]; [24]) was 100. For the same molecule, the “Plant response rating, Barnyardgrass” value (barnyardgrass [23]; [25]) was 40.
